Laboratory results published in patent US12528818B2, “Compositions and methods for inhibition of RAS” (Leidos Biomedical Research, Inc., priority 2021, dated 2026).

The molecules below were run on pERK in NCI-H358 cells (assay: Cell-based pERK HTRF assay (pERK inhibition in H358 cells)). Conditions: Homo sapiens, NCI-H358, 0.5 h, pERK inhibition IC50, NCI-H358 cells, 30 min incubation; read-out: PERK in H358 cell.

| IC50 [µM] | Compound |
| --- | --- |
| < 0.1 | C=CC(=O)N1CCC(N(C)c2nc(OC[C@@H]3C[C@@H](F)CN3C)nc3c(F)c(-c4ccc(F)c5sc(N)c(C#N)c45)c(C(F)(F)F)cc23)[C@H]1COC (stereo partly shown) [Compound 443] |
| < 0.1 | C=CC(=O)N1CC(Nc2nc(OC[C@@]34CCCN3C[C@H](F)C4)nc3c(F)c(-c4ccc(F)c5sc(N)nc45)c(C(F)(F)F)cc23)C1 [Compound 270] |
| 0.1 to 1 | C=CC(=O)N1CC[C@@H](N(CC)c2nc(OC[C@@]34CCCN3C[C@H](F)C4)nc3c(F)c(-c4ccc(F)c5sc(N)c(C#N)c45)c(Cl)cc23)[C@H]1C [Compound 418] |
| 0.1 to 1 | C=CC(=O)N1CCC(N(C)c2nc(OC[C@@H]3CCCN3C)nc3cc(-c4ccc(F)c5sc(N)c(C#N)c45)c(F)cc23)[C@H]1COC (stereo partly shown) [Compound 441] |
| > 1 | C=CC(=O)N1C[C@H](N(C)c2ncnc3c(F)c(-c4ccc(F)c5sc(N)nc45)c(C(F)(F)F)cc23)C2(CC2)C1 (atropisomer, axis not shown) [Compound 263] |
| > 1 | C=CC(=O)N1CC(Nc2nc(OC[C@@H]3CCCN3C)nc3c(F)c(-c4ccc(F)c5nc(N)sc45)c(Cl)cc23)C1 [Compound 90] |
| 0.1 to 1 | C=CC(=O)N1CCC(N(CC)c2nc(OC[C@@]34CCCN3C[C@H](F)C4)nc3cc(-c4ccc(F)c5sc(N)c(C#N)c45)ccc23)[C@H]1COC (stereo partly shown) [Compound 440] |
| < 0.1 | C=CC(=O)N1CC[C@@H](N(CC)c2nc(OC[C@@]34CCCN3C[C@H](F)C4)nc3c(F)c(-c4ccc(F)c5sc(N)c(C#N)c45)c(C(F)(F)F)cc23)C1 [Compound 348, 4-(4-(((R)-1-acryloylpyrrolidin-3-yl)(ethyl)amino)-8-fluoro-2-(((2R,7aS)-2-fluorotetrahydro-1H-pyrrolizin-7a(5H)-yl)methoxy)-6-(trifluoromethyl)quinazolin-7-yl)-2-amino-7-fluorobenzo[b]thiophene-3-carbonitrile] |
| < 0.1 | C=CC(=O)N1CCC(N(CC)c2nc(OC[C@@H]3C[C@@H](OC)CN3C)nc3c(F)c(-c4ccc(F)c5sc(N)c(C#N)c45)c(C(F)(F)F)cc23)[C@H]1C (stereo partly shown) [Compound 392] |
| < 0.1 | C=CC(=O)N1CC[C@@H](N(CC)c2nc(OC[C@@]34CCCN3C[C@H](F)C4)nc3cc(-c4ccc(F)c5sc(N)c(C#N)c45)c(F)cc23)[C@H]1C [Compound 414] |
| > 1 | C=CC(=O)N1CC(Nc2nc(OC[C@@H]3CCCN3C)nc3c(F)c(-c4ccc(F)c5sc(N)nc45)c(-c4ccoc4)cc23)C1 [Compound 93] |
| < 0.1 | C=CC(=O)N1C[C@@H](F)[C@@H](N(CC)c2nc(OC[C@@]34CCCN3C[C@H](F)C4)nc3cc(-c4ccc(F)c5sc(N)c(C#N)c45)c(C#N)cc23)C1 [Compound 386] |
| < 0.1 | C=CC(=O)N1CCC(N(C)c2nc(OC[C@@H]3CCCN3CC)nc3c(F)c(-c4ccc(F)c5sc(N)c(C#N)c45)c(Cl)cc23)[C@H]1C (stereo partly shown) [Compound 464] |
| > 1 | C=CC(=O)NCCNc1nc(C2CCN(C)CC2)nc2c(F)c(-c3ccc(F)c4sc(N)nc34)c(Cl)cc12 [Compound 64] |
| < 0.1 | C=CC(=O)N1CC[C@@H](N(C)c2nc(OC[C@@]34CCCN3C[C@H](F)C4)nc3c(F)c(-c4ccc(F)c5sc(N)c(C#N)c45)c(F)cc23)C1 [Compound 343] |
| 0.1 to 1 | C=CC(=O)N1CC[C@H](N(C)c2nc(OC[C@@]34CCCN3C[C@H](F)C4)nc3c(F)c(-c4ccc(F)c5sc(N)nc45)c(Cl)cc23)C1 [Compound 185] |
| > 1 | CC#CC(=O)N1CC[C@@H]2[C@H]1CN2c1nc(OCC23CCCN2CCC3)nc2c(F)c(-c3ccc(F)c4sc(N)nc34)c(C(F)(F)F)cc12 [Compound 180] |

Same assay, conditions: pERK inhibition IC50, NCI-H358 cells, 30 min incubation; read-out: PERK in H358 cell

| IC50 [µM] | Compound |
| --- | --- |
| > 1 | C=CC(=O)N1CC[C@@H](N(C)c2nc(OCC34CCCN3CCC4)nc3c(F)c(-c4ccc(F)c5sc(N)nc45)c(C(F)(F)F)cc23)C1 (atropisomer, axis not shown) [Compound 221] |
| 0.1 to 1 | C=CC(=O)N1CC[C@@H](N(C)c2nc(OC[C@@]34CCCN3C[C@H](F)C4)nc3c(Cl)c(-c4ccc(F)c5sc(N)nc45)c(C(F)(F)F)cc23)C1 (single isomer, unassigned) [Compound 303] |
